Results taken from patent US20150297718A1, “ION[…] OF CATIONIC PRODRUGS FOR TOPICAL TREATMENT OF MUSCU[…] SKIN DISEASES” (priority 2014, published 2015).
Read-outs that look alike come from different tables or passages of the source.

Experiments:
[1] = test system: knee arthritis pain model (monosodium iodoacetate); test: MIA knee osteoarthritis rat model treated with iontophoresis; assay type: in vivo; conditions: 0.4 mA/cm^2 for 20 min on days 1, 2, 3 after MIA; versus iontophoresis of NaCl
Protocol: A knee arthritis pain model was established by injection of 50 μl of 60 mg/ml monosodium iodoacetate (MIA) into the left hind knee joint of 12 hairless rats, and they were divided into three groups. The knee diameters of both hind knees were measured. The difference in knee diameters between the left knee and right knee was used as the indicator of the swelling (or inflammation) of the left knee. In addition, the weight bearing of each hind limb was also measured with a Linton incapacitance tester. The percentage of the weight bearing by the left leg was used as an indicator of the pain level in the knee. At 1 day, 2 days, 3 days after the injection of MIA, the left knee of the rats in group 1 was treated with iontophoresis of NaCl to the left hind knee at 0.4 mA/cm^2 for 20 min, group 2 treated with iontophoresis of Kt to the left hind knee at 0.4 mA/cm^2 for 20 min, and group 3 treated with iontophoresis of KCE to the left hind knee at 0.4 mA/cm^2 for 20 min. The knee diameter and weight bearing were measured at day 0 before the MIA injection, and also at day 1, 2, and 3 after the MIA injection but before the iontophoresis treatment. They were also measured at day 4, 6, and 10 after the MIA injection.

[2] = Iontophoresis delivery into hairless rat knee joint: tissue and plasma drug concentrations; assay type: in vivo; conditions: 0.4 mA/cm^2 for 20 min on knee
Protocol: Hairless rats were anaesthetized with isoflurane. A rubber disk shape applicator with a sponge that can hold 0.5 ml of the drug solution was used and a button Ag/AgCl electrode was used as current driving electrode. The delivery area is about 1.2 cm^2. After drug solution was loaded into the sponge, the applicator was placed on the knee cap skin and applied an electric current at 0.4 mA/cm^2 for 20 min. A return electrode was attached to the upper tail of the rat. After that, the skin was cleaned thoroughly with wet Kim wipes. The tissues (skin, muscle and joint) at the application site knee and also the contralateral site knee were collected at 30 min, 2 hr, 4 hr or 6 hr from the start of iontophoresis delivery. Three animals were used for each time point. Blood samples were also collected at appropriate time points. The tissue and blood samples were stored at −80° C. until further processing.

[3] = In vivo rat study of iontophoresis delivery on dorsal back skin: tissue and plasma drug concentrations; conditions: for Drug concentration in the skin: delivered drug (prodrug or ketoprofen); for Concentration of ketoprofen converted from the prodrug in the skin: number in bracket
Protocol: (§1) The anode iontophoresis of ketoprofen cationic prodrugs KCE, KME and cathode iontophoresis of ketoprofen were compared with an in vivo rat study for evaluation of drug penetration into deep tissues. […] A prodrug solution was loaded in the cell. A constant current of 0.4 mA/cm^2 for iontophoresis was applied for 6 hours. At the end of the iontophoresis delivery, the rats were euthanized. The skin of the application site (under the glass cell) was washed with water, tape stripped once to remove residue drug on skin, and then dissected with a biopsy punch for the tissue layers: epidermis and dermis layer (depth 0-3 mm), subcutaneous tissue (fat pad) (3-4 mm), shallow muscle layer (4-6 mm), and deep muscle (6-10 mm). The tissues from the contralateral site were dissected with the same method. In addition, the plasma blood samples were obtained right before the experiment (time 0) and each hour during the experiment. The drug concentrations in the tissue and plasma samples were analyzed with a HPLC.
as §1, with “cationic prodrugs and cathode” for “cationic prodrugs KCE, KME and cathode”, “ketoprofen were also compared with” for “ketoprofen were compared with”, “rat study at 0.4 mA/cm^2 for a shorter duration of 2 hours for evaluation” for “rat study for evaluation”, “applied for 2 hours. At” for “applied for 6 hours. At”
as §1, with “cationic prodrugs and cathode” for “cationic prodrugs KCE, KME and cathode”, “ketoprofen were also compared with” for “ketoprofen were compared with”, “rat study at 0.057 mA/cm^2 for a duration of 6 hours for evaluation” for “rat study for evaluation”, “current of 0.057 mA/cm^2 for” for “current of 0.4 mA/cm^2 for”, “with a HPLC” for “with a HPLC.”
KPE is a prodrug of ketoprofen but with two methyl groups on the nitrogen atom, instead of three methyl groups on the nitrogen atom like KCE and KME. KPE can be presented as a hydrochloride salt. […] Anode iontophoresis delivery of KPE in this aqueous solution at 0.4 mA/cm^2 for a shorter duration of 2 hour was also conducted with the in vivo rat study.

[4] = test system: melanoma cell (A375); test: In vitro cell viability assay on melanoma cell growth; assay type: cell-based; conditions: read-out: 50% inhibition concentration (IC50) on melanoma cell (A375) growth
From the text: The drug concentrations in the skin after the iontophoresis delivery of those prodrugs or their parent drug ketoprofen from different iontophoresis conditions are summarized in Table 2. The high drug concentration in the skin can be used for treatment of skin diseases including skin cancers such as melanoma. […] The ketoprofen concentrations in the skin from the iontophoresis delivery was not higher than its IC50 against the melanoma cell growth, but the KCE and KME concentrations in the skin from the anode iontophoresis delivery were higher than their IC50 against the melanoma cell growth. Thus, the anode iontophoresis of the prodrugs can provide high drug accumulation in the skin, and such high drug accumulation in the skin can be used for skin disease treatment.

[5] = In-vitro side-by-side diffusion cell study, iontophoresis across human epidermis skin; assay type: in vitro ADME; conditions: KCE 26.6 μmol/ml, PE 4.9 μmol/ml, 0.2 mA
From the text: The efficiency in anode iontophoresis delivery of KCE and that in cathode iontophoresis delivery of ketoprofen were compared with an in-vitro side-by-side diffusion cell study. […] The human cadaver epidermis skin was sandwiched between the two half cells with stratum corneum face the donor chamber. For anode iontophoresis of KCE, KCE chloride salt solution (26.6 μmol/ml) was placed in the donor cell. For cathode iontophoresis of ketoprofen (Kt), […] solution (26.6 μmol/ml) was placed in the donor cell. Phosphate buffer solution (0.15 M at pH 7.4) was placed in the receiver chamber. Constant current 0.2 mA was applied to the diffusion cell. The amount of drug penetrated through the skin was collected in the receive chamber and analyzed with a HPLC. The anode iontophoresis of the cationic prodrug KCE delivered 4 times more drug across the skin than that delivered by the cathode iontophoresis of ketoprofen (see FIG. 4A) from the in-vitro study.
Anode iontophoresis of the cationic ketoprofen prodrug KCE (26.6 μmol/ml) with the presence of phenylephrine (PE) (4.9 μmol/ml) in solution was evaluated with an in-vitro diffusion cell study across a human epidermis skin.

[6] = iontophoresis 0.057 mA/cm^2 for 6 hrs
[7] = iontophoresis 0.4 mA/cm^2 for 2 hrs
[8] = iontophoresis 0.4 mA/cm^2 for 6 hrs

CC(C(=O)O)c1cccc(C(=O)c2ccccc2)c1 (stereo not shown) [Ketoprofen, reference compound]
Knee swelling (knee diameter difference left vs right) [1]: not as effective | Weight bearing of the left leg (pain indicator) [1]: not as effective | Plasma Kt concentration [2]: high initial plasma Kt concentration than iontophoresis of the cationic prodrug KCE | Tissue drug concentrations / direct penetration at the application site ([3]; 0.057 mA/cm^2 for 6 hours): only achieved skin deep penetration with no direct penetration into subcutaneous, shallow muscle or deep muscle tissue | Tissue drug concentrations / direct penetration at the application site ([3]; 0.4 mA/cm^2 for 2 hours): only achieved skin deep penetration with no direct penetration into subcutaneous, shallow muscle or deep muscle tissue | Plasma drug concentration ([3]; 0.4 mA/cm^2 for 6 hours): high | Tissue drug concentrations / direct penetration at the application site ([3]; 0.4 mA/cm^2 for 6 hours): can only penetrate skin deep | Drug concentration in the skin [3, 6]: 59 μmol per kilogram of skin | Drug concentration in the skin [3, 7]: 378 μmol per kilogram of skin | Drug concentration in the skin [3, 8]: 417 μmol per kilogram of skin | IC50 ([4]; Homo sapiens, A-375, A375 cells): 1400 µM

CNC[C@H](O)c1cccc(O)c1 [PE, phenylephrine, reference compound]
Amount penetrated across the skin by anode iontophoresis, KCE alone versus KCE with phenylephrine [5]: Significant amount of PE was also delivered across the skin

CC(C(=O)OCCCN(C)C)c1cccc(C(=O)c2ccccc2)c1.Cl (stereo not shown) [KPE]
Plasma drug concentration ([3]; 0.4 mA/cm^2 for 2 hours): lower than that from iontophoresis of Kt | Tissue drug concentrations / direct penetration at the application site ([3]; 0.4 mA/cm^2 for 2 hours): Higher drug concentrations in the tissues at the drug application site than those from the contralateral site | Drug concentration in the skin [3, 7]: 1883 μmol per kilogram of skin | Concentration of ketoprofen converted from the prodrug in the skin [3, 7]: 736 μmol per kilogram of skin

CC(C[N+](C)(C)C)OC(=O)C(C)c1cccc(C(=O)c2ccccc2)c1.[Cl-] (stereo not drawn) [KME, Ketoprofen β-methylcholine ester chloride salt]
Plasma and contralateral tissue drug concentration ([3]; 0.057 mA/cm^2 for 6 hours): we can detect the parent drug Kt in the plasma and also in the contralateral tissue | Tissue drug concentrations / direct penetration at the application site ([3]; 0.057 mA/cm^2 for 6 hours): direct penetration into deep tissues that is up into the deep muscles | Drug in tissues at the contralateral site ([3]; 0.4 mA/cm^2 for 2 hours): no ketoprofen or KME was detected in the tissues at the contralateral site | Plasma drug concentration ([3]; 0.4 mA/cm^2 for 2 hours): no ketoprofen or KME in rat plasma was detected | Tissue drug concentrations / direct penetration at the application site ([3]; 0.4 mA/cm^2 for 2 hours): direct penetration into deep tissues and prodrug retaining in the tissues of the application site | Drug in tissues at the contralateral site ([3]; 0.4 mA/cm^2 for 6 hours): No prodrug or Kt was detected in the contralateral tissues | Plasma drug concentration ([3]; 0.4 mA/cm^2 for 6 hours): No prodrug or Kt was detected in the plasma | Tissue drug concentrations / direct penetration at the application site ([3]; 0.4 mA/cm^2 for 6 hours): High prodrug KME concentrations in the tissues of the drug application | Drug concentration in the skin [3, 6]: 3725 μmol per kilogram of skin | Concentration of ketoprofen converted from the prodrug in the skin [3, 6]: 73 μmol per kilogram of skin | Drug concentration in the skin [3, 7]: 6128 μmol per kilogram of skin | Concentration of ketoprofen converted from the prodrug in the skin [3, 7]: 35 μmol per kilogram of skin | Drug concentration in the skin [3, 8]: 34768 μmol per kilogram of skin | Concentration of ketoprofen converted from the prodrug in the skin [3, 8]: 449 μmol per kilogram of skin | IC50 ([4]; A375 cells): 1550 µM
